Read-outs that look alike come from different tables or passages of the source.
What was measured:
mice [1] = assay: acute in vivo bioassay of spinal opioid analgesic tolerance (ENDO-2 pre-treatment, warm water immersion tail flick test)
Description: To evaluate the effects of the compounds in opioid tolerance an acute in vivo bioassay of opioid analgesic tolerance was employed. In this instance, either a large dose of the mu opioid receptor selective neuropeptide ENDO-2 is given or vehicle. When the analgesic effects are no longer evident, a second analgesic dose of ENDO-2 is given. The second analgesic dose of ENDO-2 is effective in the group pre-treated with saline, but not in the group that was pre-treated with the large dose of ENDO-2. When agmatine or when one of the SSA is given together with the large pre-treatment dose of ENDO-2, the second analgesic dose of ENDO-2 is effective. In this bioassay, agmatine and most of the SSAs prevented the development of opioid tolerance.
Formula I compounds from Table 2 were evaluated for their impact on the development of opioid analgesic tolerance when dosed central (intrathecally) and systemically (intraperitoneally). […] When a high dose of ENDO-2 is intrathecally injected a subsequent analgesic dose is no longer effective (30 minutes later) (Stone et al., 1997). This is a model of opioid-induced analgesic tolerance.
When that second group received a second injection of ENDO-2 (same dose as in the SAL group), the analgesic effect was not observed. Analgesic tolerance to ENDO-2 was, therefore, induced. […] AG 4 nmol (third bar from left).

[2] = system: mice with chronic pain induced by nerve-injury; assay: spinal nerve injury-induced neuropathic pain, von Frey monofilament tactile hypersensitivity; type: in vivo
mice [3] = assay: development of chronic systemic morphine tolerance (s.c. morphine, warm water 52° C. tail flick test); type: in vivo; conditions: for development of systemic morphine tolerance: systemic co-administration with morphine (FIGS. 7B-D)
Protocol: (§1) Doses were administered t.i.d. every 8 hours for 4 days. On day 6, four cumulative doses of morphine were given subcutaneously to assess tolerance in the warm water (52° C.) tail flick test.

mice [4] = assay: development of central morphine tolerance (intrathecal morphine, warm water tail flick test); type: in vivo; conditions: for ED50 (nmol, i.t.): tail flick day 4
Protocol: On day 4, four cumulative doses of morphine were given intrathecally to assess tolerance in the warm water tail flick test.
as §1

nerve-injured mice [5] = assay: rotarod assay of motor dysfunction and sedation; conditions: for rotarod performance: intravenously administered, doses effective in nerve-injured mice, 30 minutes post-injection
[6] = cardiovascular measures / heart rate after i.v. injection; conditions: in vivo
female mice = assay: oral oxycodone self-administration model of opioid addiction (active vs control lever); type: in vivo
Protocol: FIGS. 6A and 6B show an in vivo model of opioid addiction in mice. […] Open symbols represent the lever pressing of mice on the “control” lever that result in no reward. Solid symbols represent the lever pressing of mice on the “active lever” which results in delivery of a 70 μL volume of oxycodone into a receptacle. The mice lick or drink the opioid from the receptacle.
Formula I compounds were assessed for similar effects in a model of oral oxycodone self-administration. […] Standard enclosed operant conditioning chambers modeled opioid addiction where in response to a light cue, mice have an opportunity to choose between one of two levers. Pressing one lever (the “Active” lever) results in delivery of a small quantity of oxycodone to a drinking receptacle where the mouse can lick or drink the fluid. Pressing the other lever (termed “Control” lever) results in no reward. In this experiment, female mice were separated into two groups; both groups were trained to lever press for oxycodone reward after pressing the “Active” lever of a two lever choice. Initially one lever press results in one delivery of opioid fluid. Pressing the “control” lever offers no reward. […] On day 15, they were required to press the active lever 3 times to seek the reward. […] The mice were given six injections over a period of 8 days. […] Responses were monitored from Day 20-40 of the experiment. […]

[7] = in vivo
nerve-injured mice [8] = conditions: intrathecal, previously observed; cited from earlier work
rats = conditions: Morgan et al. 2002; cited from earlier work
[9] = morphine i.t. ED50 (interval in brackets) after pre-treatment Morphine (10 nmol, i.t.) + compound (10 nmol, i.t.) or VEH b.i.d. 3 days
[10] = co-administered intrathecally (it) with tolerance-inducing ENDO-2 pre-treatment, agmatine 4 nmol
[11] = delivered systemically, 100 mg/kg ip, with intrathecal ENDO-2 pre-treatment
[12] = delivered systemically, ip, dose not given
[13] = IV, 0.45, 1.35, 4.5 micromoles/kg, induction and maintenance phase, ipsilateral hindpaw

| SMILES | development of systemic morphine tolerance (mice [3]) | development of opioid analgesic tolerance to ENDO-2 (mice [1]; [10]) | development of opioid analgesic tolerance to ENDO-2 (mice [1]; [11]) | development of opioid analgesic tolerance to ENDO-2 (mice [1]; [12]) | rotarod performance (nerve-injured mice [5]) | hindpaw withdrawal thresholds (von Frey) [2, 13] | impact on cardiovascular measures [6] | further results |
| --- | --- | --- | --- | --- | --- | --- | --- | --- |
| CCOC(=O)/N=C(/N)NCCCCNC(=O)OCC [J-1, ethyl (amino((4-((ethoxycarbonyl)amino)butyl)amino)methylene)carbamate] | reduces or prevents the development of systemic morphine tolerance |  |  |  |  |  |  | development of opioid analgesic tolerance to ENDO-2 (mice [1]; systemically, dose range of 1-30 mg/kg): did not prevent the development of opioid analgesic tolerance; time to onset of effect compared to agmatine ([2]; mouse, in vivo): significantly earlier time to onset of effect; development of central morphine tolerance (mice [4]; intrathecal co-administration with morphine (FIG. 7A)): prevented the development of central morphine tolerance; ED50 (nmol, i.t.) (mice [4]; [9]): 2.86 (2.41, 3.40) nmol; ED50 (nmol, i.t.) (mice [4]; morphine i.t. ED50 (interval in brackets) after pre-treatment Saline + compound (10 nmol, i.t.) b.i.d. 3 days): 3.82 (2.95, 4.94) nmol |
| CCOC(=O)NCCCCNC(=N)N [J-2, ethyl (4-guanidinobutyl)carbamate] | reduces or prevents the development of systemic morphine tolerance | prevented the development of opioid analgesic tolerance | prevented the development of opioid analgesic tolerance |  |  |  |  |  |
| CCOC(=O)/N=C(\NCCCCNC(C)=O)NC(=O)OCC [J-3] |  | prevented the development of opioid analgesic tolerance |  | prevented the development of opioid analgesic tolerance | did not impact rotarod performance | the hindpaw withdrawal thresholds elevated toward control levels of responding | no impact on cardiovascular measures | response compared to the response of agmatine ([2]; IV, 0.45, 1.35, 4.5 micromoles/kg): No significant difference |
| CC(=O)NCCCCN/C(=N\C(=O)OC(C)(C)C)NC(=O)OC(C)(C)C [J-4, 4-(2,3-bis(tert-butyloxycarbonyl)guanidino)butylacetamide] |  |  |  | prevented the development of opioid analgesic tolerance | did not impact rotarod performance | the hindpaw withdrawal thresholds elevated toward control levels of responding | no impact on cardiovascular measures | reduction of established neuropathic pain compared with agmatine at the same dose ([2]; IV, 1.35 micromoles/kg, maintenance phase for J-4 (FIG. 2F vs 2B)): distinctly greater than that of agmatine at the same dose; preference for active versus control lever (oxycodone) (female mice; intraperitoneal (IP) injection prior to session (FIG. 6B)): showed greatly reduced preference for the active versus the control lever; preference for active versus control lever (oxycodone) (female mice; intravenous injections, 30 mg/kg, six injections over 8 days): showed little preference for the lever after injections were initiated |
| CC(=O)NCCCCNC(=N)N [J-5, N-(4-guanidinobutyl)acetamide] |  | prevented the development of opioid analgesic tolerance | prevented the development of opioid analgesic tolerance |  |  |  |  |  |
| CCOC(=O)/N=C(/N)NCCCCNC(C)=O [J-6] |  | prevented the development of opioid analgesic tolerance | prevented the development of opioid analgesic tolerance |  |  |  |  |  |
| CCOC(=O)/N=C(/N)NCCCCN [J-7, 4-(2-(ethoxycarbonyl)guanidino) butan-1-aminium 2,2,2-trifluoroacetate] |  |  | prevented the development of opioid analgesic tolerance |  |  |  |  | development of opioid analgesic tolerance to ENDO-2 (mice [1]; systemically delivered, 10 mg/kg dose): prevented the development of opioid analgesic tolerance |
| CCOC(=O)/N=C(\NCCCCN)NC(=O)OCC.Cl [J-8, 4-(2,3-bis(ethoxycarbonyl)guanidino)butan-1-aminium chloride] |  | prevented the development of opioid analgesic tolerance |  | prevented the development of opioid analgesic tolerance |  |  | no impact | motor impairment (nerve-injured mice [5]; early side effects studies): no impact; hindpaw withdrawal thresholds (von Frey) ([2]; IV, five doses 0.045, 0.0135, 0.45, 1.35, 4.5 micromoles/kg (approximately 1-100 mg/kg), induction phase): the hindpaw withdrawal thresholds elevated significantly toward control levels of responding in a dose-dependent manner |
| CN1CC[C@]23c4c5ccc(O)c4O[C@H]2[C@@H](O)C=C[C@H]3[C@H]1C5 [Morphine, morphine, reference compound] |  |  |  |  |  |  |  | ED50 (mice [3]; Mus musculus, sc, 144 h, morphine s.c. ED50 after pre-treatment Morphine (10 mg/kg, s.c.) + compound (3 mg/kg s.c.) or VEH t.i.d. 4 days, tail flick day 6, read-out: ED50 (95% CI) (mg/kg, s.c.)): 24.9 mg/kg; ED50 (nmol, i.t.) (mice [4]; [9]): 10.84 (4.94, 23.82) nmol |
| N=C(N)NCCCCN [agmatine, 1-(4-aminobutyl)guanidine, reference compound] | reduces or prevents the development of systemic morphine tolerance | protected against the induction of opioid tolerance |  |  | did not impact rotarod performance | the hindpaw withdrawal thresholds elevated toward control levels of responding |  | impact on cardiovascular measures [7]: no impact on cardiovascular measures; rotarod performance (nerve-injured mice [8]): does not impact rotarod performance; heroin-induced self-administration (rats): diminishes heroin-induced self-administration in rats |
